We go through 29 compounds from US7488738B2, “Aminophenoxyacetic acid derivatives and pharmaceutical composition containing thereof” (Asubio Pharma Co., Ltd., priority 1998, dated 2009).

Each structure is given as a SMILES string.

The test relates to cells of cerebral cortex. Put plainly: Cytoprotective effect against glutamate induced cell death (MTT). The format is cell-based, rats of Wister strain. The following applies: compound 1 μM added 24 h before 1 mM glutamate, fetal rat cerebral cortex cells, control group = 100%; for viability at 1 µM: read-out: Survival Rate (%) (Compound: 1 μM). The protocol:
Biological Test 1: Cytoprotective Effect Against Glutamate Induced Cell Death
In accordance with the method of M. P. Mattoson [M. P. Mattoson, Brain Res. Rev., 13, 179 (1988)], brain of 18-days fetus rats of Wister strain were taken out. Then, cells of cerebral cortex (4×10^5 cells/ml) were seeded on poly-L-lysine coated 96 wells flat bottom plate (Sumitomo Bakelite Co., Ltd.) in concentration of 4×10^4 cells/each well. After 48 hours of incubation, 1 μM of test compounds were added, then after further 24 hours, 1 mM of glutamate were further added for inducing the cell injury. 12 hours after adding glutamate, MTT [3-(4,5-dimethylthiazol)-2,5-diphenyltetrazolium bromide] was added and incubated for 6 hours.
After incubation, 200 μl of dimethy sulfoxide was added to each wells, and the amounts of reduced MTT were calorimetrically analyzed by Micro ELISA Reader using 570 nm of main-wavelength and 650 nm of sub-wavelength.
The effect of the test compounds was determined as the survival rate of living cells (%) according to the following equation: Survival rate of living cells (%)=[(test compound group−glutamate treated group)÷(control group−glutamate treated group)]×100
That is, the survival rate of living cells after incubation of the control group was converted to 100%, and the survival data of living cells of the tested compounds was shown in Table II.

As to `Cc1c(C)c(NCC(=O)N(C)C2CCN(Cc3ccccc3)CC2)c(C)c(C)c1N` [Compound 110, 2-(4-Amino-2,3,5,6-tetramethylanilino)-N-(1-benzyl-4-piperidinyl]-N-methylacetamide], the viability at 1 µM was 61%.
As for `Cc1cc(C)c(NCC(=O)N(C)C2CCN(CC(=O)c3ccccc3)CC2)c(C)c1N` [Compound 127, 2-(3-Amino-2,4,6-trimethylanilino)-N-methyl-N-[1-(2-phenyl-2-oxyethyl)-4-piperidinyl]acetamide], the “Survival Rate (%) (Compound: 1 μM)” value came out at 72%.
As for `Cc1cc(OCC(=O)N(C)C2CCN(C/C=C/c3ccccc3)CC2)c(C)c(C)c1N` [Compound 53, 2-(4-Amino-2,3,5-trimethylphenoxy)-N-methyl-N-[1-(3-phenyl-2-(E)-propenyl)-4-piperidinyl]acetamide], the viability at 1 µM came out at 144%.
For `Cc1cc(OC(C)C(=O)N(C)C2CCN(CC3(c4ccccc4)CC3)CC2)c(C)c(C)c1N` (centres unmarked) [Compound 90, 2-(4-Amino-2,3,5-trimethylphenoxy)-N-methyl-N-[1-(1-phenyl-1-cyclopropane)methyl-4-piperidinyl]propamide], the “Survival Rate (%) (Compound: 1 μM)” value turned out to be 149%.
Regarding `Cc1cc(OCC(=O)N(C)C2CCN(CC(O)COc3ccccc3)CC2)c(C)c(C)c1N` (centres unmarked) [Compound 65, 2-(4-Amino-2,3,5-trimethylphenoxy)-N-methyl-N-[1-(2-hydroxy-3-phenoxy)propyl-4-piperidinyl]acetamide], the “Survival Rate (%) (Compound: 1 μM)” value was 73%.
On the same count and under the same terms, in the case of `Cc1cc(OC(C)(C)C(=O)N(C)C2CCN(C/C=C/c3ccccc3)CC2)c(C)c(C)c1N` [Compound 67, 2-(4-Amino-2,3,5-trimethylphenoxy)-2-methyl-N-methyl-N-{1-(3-phenyl-2-(E)-propenyl)-4-piperidinyl]propamide] it was 69%; in that of `CCN(C(=O)CNc1c(C)c(C)c(N)c(C)c1C)C1CCN(CC2(c3ccccc3)CC2)CC1` [Compound 88, 2-(4-Amino-2,3,5,6-tetramethylanilino)-N-ethyl-N-[1-(1-phenyl-1-cyclopropane)methyl-4-piperidinyl]acetamide], 81%.
Turning to `CCN(C(=O)COc1cc(C)c(N)c(C)c1C)C1CCN(C/C=C/c2ccccc2)CC1` [Compound 74, 2-(4-Amino-2,3,5-trimethylphenoxy)-N-ethyl-N-[1-(3-phenyl-2-(E)-propenyl)-4-piperidinyl]acetamide], the viability at 1 µM amounted to 87%.
Take `Cc1cc(OC(C)(C)C(=O)NC2CCN(CC(=O)Nc3ccccc3)CC2)c(C)c(C)c1N` [Compound 82, 2-(4-Amino-2,3,5-trimethylphenoxy)-2-methyl-N-[1-(2-anilino-2-oxyethyl)-4-piperidinyl]propamide]: the “Survival Rate (%) (Compound: 1 μM)” value was 149%.
Still for that read-out and setting: with `Cc1c(C)c(NCC(=O)N(C)C2CCN(CC3(c4ccccc4)CC3)CC2)c(C)c(C)c1N` [Compound 70, 2-(4-Amino-2,3,5,6-tetramethylanilino)-N-methyl-N-[1-(1-phenyl-1-cyclopropane)methyl-4-piperidinyl]acetamide] the figure was 88%.
Regarding `Cc1cc(C)c(N(C)C)c(C)c1NCC(=O)N(C)C1CCN(C(=O)c2ccccc2)CC1` [Compound 135, N-(1-benzoyl-4-piperidinyl)-2-(3-dimethylamino-2,4,6-trimethylanilino)-N-methylacetamide], the viability at 1 µM worked out at 76%.
Consider `Cc1cc(OC(C)(C)C(=O)NC2CCN(C[C@@H]3C[C@H]3c3ccccc3)CC2)c(C)c(C)c1N` (relative stereo) [Compound 99, 2-(4-Amino-2,3,5-trimethylphenoxy)-2-methyl-N-[1-(trans-2-phenyl-1-cyclopropylmethyl)-4-piperidinyl]propamide], for which the “Survival Rate (%) (Compound: 1 μM)” value was determined as 151%.
The same measure, in the same setting: in the case of `Cc1cc(OC(C)(C)C(=O)N(C)C2CCN(CCc3ccccc3)CC2)c(C)c(C)c1N` [Compound 38, 2-(4-Amino-2,3,5-trimethylphenoxy)-2-methyl-N-methyl-N-[1-(2-phenethyl)-4-piperidinyl]propamide] it was 114%; in that of `Cc1cc(N)c(NCC(=O)N(C)C2CCN(C[C@@H]3C[C@H]3c3ccccc3)CC2)cc1C` (relative stereo) [Compound 137, 2-(2-Amino-4-5-dimethylanilino)-N-methyl-N-[1-(trans-2-phenyl-1-cyclopropylmethyl)-4-piperidinyl]acetamide], 71%.
Regarding `Cc1c(C)c(NCC(=O)N(C)C2CCN(CC(=O)Nc3ccccc3)CC2)c(C)c(C)c1N` [Compound 41, 2-(4-Amino-2,3,5,6-tetramethylanilino)-N-[1-(2-anilino-2-oxyethyl)-4-piperidinyl]-N-methylacetamide], the “Survival Rate (%) (Compound: 1 μM)” value was 86%.
For `Cc1cc(NC(=O)CN2CCC(N(C)C(=O)C(C)(C)Oc3cc(C)c(N)c(C)c3C)CC2)c(C)cc1O` [Compound 107, 2-(4-Amino-2,3,5-trimethylphenoxy)-2-methyl-N-[1-(2-(2,5-dimethyl-4-hydroxy)anilino-2-oxyethyl]-4-piperidinyl]-N-methylpropamide], the “Survival Rate (%) (Compound: 1 μM)” value came to 227%.
In the case of `Cc1cc(OCC(=O)NC2CCN(C[C@@H]3C[C@H]3c3ccccc3)CC2)c(C)c(C)c1N` (relative stereo) [Compound 95, 2-(4-Amino-2,3,5-trimethylphenoxy)-N-[1-(trans-2-phenyl-1-cyclopropylmethyl)-4-piperidinyl]acetamide], the viability at 1 µM was 61%.
Take `Cc1cc(OC(C)C(=O)NC2CCN(CC(=O)Nc3ccccc3)CC2)c(C)c(C)c1N` (centres unmarked) [Compound 83, 2-(4-Amino-2,3,5-trimethylphenoxy)-N-[1-(2-anilino-2-oxyethyl)-4-piperidinyl]propamide]: the “Survival Rate (%) (Compound: 1 μM)” value is on record as 65%.
As for `Cc1cc(OCC(=O)NC2CCN(CC(=O)Nc3ccccc3)CC2)c(C)c(C)c1N` [Compound 85, 2-(4-Amino-2,3,5-trimethylphenoxy)-N-[1-(2-anilino-2-oxyethyl)-4-piperidinyl]acetamide], the “Survival Rate (%) (Compound: 1 μM)” value turned out to be 98%.
As for `Cc1cc(OCC(=O)N(C)C2CCN(CC(=O)Nc3ccccc3C(C)(C)C)CC2)c(C)c(C)c1N` [Compound 46, 2-(4-Amino-2,3,5-trimethylphenoxy)-N-[1-(2-(2-tert-butyl)anilino-2-oxyethyl)-4-piperidinyl]-N-methylacetamide], the “Survival Rate (%) (Compound: 1 μM)” value is listed as 101%.
In the case of `Cc1cc(OC(C)(C)C(=O)N(C)C2CCN(CC(=O)Nc3cc(Cl)c(N)cc3Cl)CC2)c(C)c(C)c1N` [Compound 79, 2-(4-Amino-2,3,5-trimethylphenoxy)-2-methyl-N-[1-(2-(4-amino-2,5-dichloro)anilino-2-oxyethyl)-4-piperidinyl]-N-methylpropamide], the “Survival Rate (%) (Compound: 1 μM)” value came to 79%.
Regarding `Cc1cc(C)c(NCC(=O)N(C)C2CCN(S(=O)(=O)c3ccccc3)CC2)c(C)c1N` [Compound 130, 2-(3-Amino-2,4,6-trimethylanilino)-N-methyl-N-[1-(phenylsulfonyl)-4-piperidinyl]acetamide], the viability at 1 µM was 60%.
Take `CCN(C(=O)C(C)Oc1cc(C)c(N)c(C)c1C)C1CCN(CC(=O)Nc2ccccc2)CC1` (centres unmarked) [Compound 75, 2-(4-Amino-2,3,5-trimethylphenoxy)-N-[1-(2-anilino-2-oxyethyl)-4-piperidinyl]-N-ethylpropamide]: the “Survival Rate (%) (Compound: 1 μM)” value came to 96%.
The same measure, in the same setting: with `Cc1cc(OC(C)(C)C(=O)NC2CCN(CC3(c4ccccc4)CC3)CC2)c(C)c(C)c1N` [Compound 81, 2-(4-Amino-2,3,5-trimethylphenoxy)-2-methyl-N-[1-(1-phenyl-1-cyclopropane)methyl-4-piperidinyl]propamide] the figure was 97%.
For the compound `Cc1c(C)c(NC(C)C(=O)N(C)C2CCN(CC3CC3)CC2)c(C)c(C)c1N` (centres unmarked) [Compound 121, 2-(4-Amino-2,3,5,6-tetramethylanilino)-N-[1-(cyclopropylmethyl)-4-piperidinyl]-N-methylpropamide], the “Survival Rate (%) (Compound: 1 μM)” value amounted to 82%.
The same measure, in the same setting: with `Cc1cc(OC(C)C(=O)N(C)C2CCN(CC(=O)Nc3ccccc3C(C)(C)C)CC2)c(C)c(C)c1N` (centres unmarked) [Compound 60, 2-(4-Amino-2,3,5-trimethylphenoxy)-N-[1-(2-(2-tert-butylanilino)-2-oxyethyl)-4-piperidinyl]-N-methylpropamide] the figure was 60%.
Consider `Cc1cc(C)c(NCC(=O)N(C)C2CCN(Cc3ccc4ccccc4c3)CC2)c(C)c1N` [Compound 133, 2-(3-Amino-2,4,6-trimethylanilino)-N-methyl-N-[1-(2-naphthyl)methyl-4-piperidinyl]acetamide], for which the viability at 1 µM came out at 101%.
Turning to `CN(C(=O)CNc1cc(Cl)c(N)cc1Cl)C1CCN(CCc2ccccc2)CC1` [Compound 138, 2-(4-Amino-2,5-dichloroanilino)-N-methyl-N-[1-(2-phenethyl)-4-piperidinyl]acetamide], the “Survival Rate (%) (Compound: 1 μM)” value stood at 42%.
On to `Cc1cc(OC(C)(C)C(=O)N(C)C2CCN(CC3(c4ccccc4)CC3)CC2)c(C)c(C)c1N` [Compound 68, 2-(4-Amino-2,3,5-trimethylphenoxy)-2-methyl-N-methyl-N-[1-(1-phenyl-1-cyclopropane)methyl-4-piperidinyl]propamide], for which the “Survival Rate (%) (Compound: 1 μM)” value is listed as 75%.
